Source: patent publication US10799507B2, “5-(7H-pyrrolo[2,3-d]pyrimidin-4-yl)-5-azaspiro[2.5]octane-8-carboxylic acid derivatives as novel JAK kinase inhibitors” (LEO Pharma A/S, priority 2017, dated 2020)

Assays:
Type in all cases: biochemical
[1] = target: JAK1 (Homo sapiens (Human), UniProt P23458); experiment: JAK kinase assay (HTRF), JAK1; settings: catalytic domain, ATP at Km (7 μM)
Description: (§1) Human baculovirus-expressed JAK1, 2, 3 and TYK2 were purchased from Carna Biosciences, Inc. All four purified enzymes contain only the catalytic domain. JAK1 (aa 850-1154) and TYK2 (aa 871-1187) are expressed with an N-terminally fused GST-tag, and JAK2 and JAK3 with an N-terminally fused His-tag.
(§2) Inhibition of phosphorylation of a synthetic peptide was measured in an HTRF-based assay using the TK substrate-Biotin from the Cisbio HTRFKinEASE TK kit. First, 2 μl of TK solution (TK substrate-biotin in kinase buffer [1× enzymatic buffer from HTRFKinEASE TK kit, 1 mM DTT]) is added to a plate containing 1 μl prediluted compound (final assay concentration DMSO: 0.75%). Then, 5 μl kinase-ATP mix (prepared in kinase buffer) is added to the wells and the plates are incubated at RT for 20-30 min. For all four kinases a concentration of ATP that corresponded to the Km for ATP was used. The final concentrations of buffers, substrate, kinase and ATP were: JAK1: 50 mM Hepes buffer pH 7.0, 0.01% BSA, 10 mM MgCl2, 1 mM DTT, 7 μM ATP, 50 nM SEB, 1 μM TK Substrate-Biotin and 5 ng JAK1; JAK2: 50 mM Hepes buffer pH 7.0, 0.01% BSA, 5 mM MgCl2, 1 mM DTT, 4 μM ATP, 1 μM TK Substrate-Biotin and 0.1 ng JAK2; JAK3: 50 mM Hepes buffer pH 7.0, 0.01% BSA, 5 mM MgCl2, 1 mM DTT, 2 μM ATP, 1 μM TK Substrate-Biotin and 0.3 ng JAK3; TYK2: 50 mM Hepes buffer pH 7.0, 0.01% BSA, 5 mM MgCl2, 1 mM DTT, 13 μM ATP, 50 nM SEB, 1 μM TK Substrate-Biotin and 0.8 ng TYK2. Thereafter, the kinase reaction is stopped by adding 4 μl detection mix (final concentrations: 50 mM Hepes buffer pH 7.0, 0.01% BSA, 0.8 M KF, 20 mM EDTA, 42 nM Streptavidin-XL665 and 1:400 STK Ab Cryptate) and the plates are incubated overnight in the dark. The HTRF signal is read using an Envision plate reader.

[2] = target: JAK2 (Homo sapiens (Human), UniProt O60674); experiment: JAK kinase assay (HTRF), JAK2; settings: catalytic domain, ATP at Km (4 μM)
JAK2, sequence (O60674 849-1124): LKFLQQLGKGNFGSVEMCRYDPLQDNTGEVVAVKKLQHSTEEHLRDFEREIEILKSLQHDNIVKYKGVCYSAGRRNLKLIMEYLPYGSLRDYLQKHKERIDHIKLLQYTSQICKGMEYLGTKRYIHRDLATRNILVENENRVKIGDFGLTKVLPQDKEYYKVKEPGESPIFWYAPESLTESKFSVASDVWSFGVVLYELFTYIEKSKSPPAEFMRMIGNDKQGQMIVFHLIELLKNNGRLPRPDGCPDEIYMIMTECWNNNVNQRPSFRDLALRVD
Description: as §1, §2

[3] = target: TYK2 (Homo sapiens (Human), UniProt P29597); experiment: JAK kinase assay (HTRF), TYK2; settings: catalytic domain, ATP at Km (13 μM)
TYK2, sequence (P29597 871-1187): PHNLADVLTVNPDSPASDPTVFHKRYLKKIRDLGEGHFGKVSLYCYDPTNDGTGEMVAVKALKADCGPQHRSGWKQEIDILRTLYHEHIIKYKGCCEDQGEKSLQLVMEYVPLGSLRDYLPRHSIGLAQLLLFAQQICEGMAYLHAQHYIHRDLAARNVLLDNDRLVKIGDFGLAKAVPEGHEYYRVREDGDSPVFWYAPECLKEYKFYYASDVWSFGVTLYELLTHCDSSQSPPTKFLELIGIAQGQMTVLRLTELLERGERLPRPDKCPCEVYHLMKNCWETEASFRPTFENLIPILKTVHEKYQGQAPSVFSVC
Description: as §1, §2
(§3) In Table 1 selected JAK kinase inhibitory activities are listed along with analytical tR and observed M+H^+ data (UPLC-MS method 7).

[4] = target: JAK3 (Homo sapiens (Human), UniProt P52333); experiment: JAK kinase assay (HTRF), JAK3; settings: catalytic domain, ATP at Km (2 μM)
JAK3, sequence (P52333 822-1111): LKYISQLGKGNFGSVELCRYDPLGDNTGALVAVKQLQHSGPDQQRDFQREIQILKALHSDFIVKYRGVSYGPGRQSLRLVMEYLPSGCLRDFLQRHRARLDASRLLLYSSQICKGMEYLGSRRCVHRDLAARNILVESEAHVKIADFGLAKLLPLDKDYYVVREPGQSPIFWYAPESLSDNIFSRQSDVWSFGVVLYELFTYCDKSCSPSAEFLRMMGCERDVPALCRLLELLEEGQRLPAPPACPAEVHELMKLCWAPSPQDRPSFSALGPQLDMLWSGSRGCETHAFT
Description: as §1, §2, §3

JAK1, sequence (P23458 850-1154): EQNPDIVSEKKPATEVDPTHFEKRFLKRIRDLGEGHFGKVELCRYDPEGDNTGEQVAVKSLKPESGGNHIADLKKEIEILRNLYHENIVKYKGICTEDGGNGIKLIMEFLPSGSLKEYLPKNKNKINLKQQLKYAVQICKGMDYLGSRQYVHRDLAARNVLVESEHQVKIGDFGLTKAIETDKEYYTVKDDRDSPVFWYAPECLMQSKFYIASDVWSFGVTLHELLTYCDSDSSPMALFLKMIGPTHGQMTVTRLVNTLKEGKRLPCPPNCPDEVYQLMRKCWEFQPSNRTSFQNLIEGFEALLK

Row | SMILES | EC50 [1] [nM] | EC50 [2] [nM] | EC50 [3] [nM] | EC50 [4] [nM]
1 | COc1ccc(CNC(=O)C2CCN(c3ncnc4[nH]ccc34)CC23CC3)cc1 (stereo not drawn) [Example 90, N-[(4-methoxyphenyl)methyl]-5-(7H-pyrrolo[2,3-d]pyrimidin-4-yl)-5-azaspiro[2.5]octane-8-carboxamide] | 8.2 | 19.6 | 288 | 34.5
2 | COc1cc(CNC(=O)[C@H]2CCN(c3ncnc4[nH]ccc34)CC23CC3)ccc1C#N [Example 93, (8S)-N-[(4-cyano-3-methoxy-phenyl)methyl]-5-(7H-pyrrolo[2,3-d]pyrimidin-4-yl)-5-azaspiro[2.5]octane-8-carboxamide] | 8.5 | 29.3 | 118 | 74.1
3 | N#Cc1ccc(CNC(=O)[C@@H]2CCN(c3ncnc4[nH]ccc34)CC23CC3)cc1 [Example 145, (8R)-N-[(4-cyanophenyl)methyl]-5-(7H-pyrrolo[2,3-d]pyrimidin-4-yl)-5-azaspiro[2.5]octane-8-carboxamide] | 64.4 | 251 | 5740 | 176
4 | COc1cc(C#N)ccc1[C@H](C)NC(=O)[C@H]1CCN(c2ncnc3[nH]ccc23)CC12CC2 [Example 97, (8S)-N-[(1S)-1-(4-cyano-2-methoxy-phenyl)ethyl]-5-(7H-pyrrolo[2,3-d]pyrimidin-4-yl)-5-azaspiro[2.5]octane-8-carboxamide] | 8.7 | 36 | 315 | 226
5 | O=C(N[C@H](CO)C1CCCCC1)[C@H]1CCN(c2ncnc3[nH]ccc23)CC12CC2 [Example 132, (8S)-N-[(1S)-1-cyclohexyl-2-hydroxy-ethyl]-5-(7H-pyrrolo[2,3-d]pyrimidin-4-yl)-5-azaspiro[2.5]octane-8-carboxamide] | 25.3 | 94.5 | 665 | 162
6 | COc1cc(F)ccc1[C@H](CO)NC(=O)[C@H]1CCN(c2ncnc3[nH]ccc23)CC12CC2 [Example 109, (8S)-N-[(1R)-1-(4-fluoro-2-methoxy-phenyl)-2-hydroxy-ethyl]-5-(7H-pyrrolo[2,3-d]pyrimidin-4-yl)-5-azaspiro[2.5]octane-8-carboxamide] | 10.5 | 24.5 | 243 | 111
7 | O=C(N[C@H](CO)C(=O)OCC1CCCC1)[C@H]1CCN(c2ncnc3[nH]ccc23)CC12CC2 [Example 87, cyclopentylmethyl (2R)-3-hydroxy-2-[[(8S)-5-(7H-pyrrolo[2,3-d]pyrimidin-4-yl)-5-azaspiro[2.5]octane-8-carbonyl]amino]propanoate] | 7.2 | 25.5 | 124 | 43
8 | N#Cc1ccc([C@@H](CO)NC(=O)[C@H]2CCN(c3ncnc4[nH]ccc34)CC23CC3)nc1 [Example 108, (8S)-N-[(1S)-1-(5-cyano-2-pyridyl)-2-hydroxy-ethyl]-5-(7H-pyrrolo[2,3-d]pyrimidin-4-yl)-5-azaspiro[2.5]octane-8-carboxamide] | 10.3 | 48.2 | 347 | 85.1
9 | COc1cc(C#N)ccc1CNC(=O)[C@H]1CCN(c2ncnc3[nH]ccc23)CC12CC2 [Example 71, (8S)-N-[(4-cyano-2-methoxy-phenyl)methyl]-5-(7H-pyrrolo[2,3-d]pyrimidin-4-yl)-5-azaspiro[2.5]octane-8-carboxamide] | 5.8 | 14.2 | 121 | 63.1
10 | O=C(NCc1ccc(F)cc1)C1CCN(c2ncnc3[nH]ccc23)CC12CC2 (stereo not drawn) [Example 53, N-[(4-fluorophenyl)methyl]-5-(7H-pyrrolo[2,3-d]pyrimidin-4-yl)-5-azaspiro[2.5]octane-8-carboxamide] | 3.6 | 8.9 | 106 | 20.8
11 | O=C(N[C@@H](CO)Cc1ccccc1)C1CCN(c2ncnc3[nH]ccc23)CC12CC2 (stereo partly drawn) [Example 137, N-[(1R)-1-benzyl-2-hydroxy-ethyl]-5-(7H-pyrrolo[2,3-d]pyrimidin-4-yl)-5-azaspiro[2.5]octane-8-carboxamide] | 38 | 30.5 | 1380 | 91.6
12 | O=C(NCC1CC(F)(F)C1)[C@H](O)CNC(=O)[C@H]1CCN(c2ncnc3[nH]ccc23)CC12CC2 (single isomer, unassigned) [Example 130] | 23.2 | 45.9 | 490 | 51
13 | O=C(NCc1ccncc1)C1CCN(c2ncnc3[nH]ccc23)CC12CC2 (stereo not drawn) [Example 85, N-(4-pyridylmethyl)-5-(7H-pyrrolo[2,3-d]pyrimidin-4-yl)-5-azaspiro[2.5]octane-8-carboxamide] | 7.1 | 28.7 | 798 | 42.8
14 | O=C(NCC1(CO)CC(F)(F)C1)[C@H](O)CNC(=O)[C@H]1CCN(c2ncnc3[nH]ccc23)CC12CC2 [Example 129, (8S)-N-[(2R)-3-[[3,3-difluoro-1-(hydroxymethyl)cyclobutyl]methylamino]-2-hydroxy-3-oxo-propyl]-5-(7H-pyrrolo[2,3-d]pyrimidin-4-yl)-5-azaspiro[2.5]octane-8-carboxamide] | 21.2 | 37.6 | 385 | 41.1
15 | O=C(N[C@H](CO)C1CCC1)[C@H]1CCN(c2ncnc3[nH]ccc23)CC12CC2 [Example 147, (8S)-N-[(1S)-1-cyclobutyl-2-hydroxy-ethyl]-5-(7H-pyrrolo[2,3-d]pyrimidin-4-yl)-5-azaspiro[2.5]octane-8-carboxamide] | 68.1 | 121 | 914 | 162
16 | N#CCC1(CNC(=O)C2CCN(c3ncnc4[nH]ccc34)CC23CC3)CC1 (stereo not drawn) [Example 112, N-[[1-(cyanomethyl)cyclopropyl]methyl]-5-(7H-pyrrolo[2,3-d]pyrimidin-4-yl)-5-azaspiro[2.5]octane-8-carboxamide] | 11.3 | 32.7 | 518 | 46
17 | C[C@@H](NC(=O)[C@H]1CCN(c2ncnc3[nH]ccc23)CC12CC2)[C@@H](O)c1ccc(C#N)cc1 [Example 146, (8S)-N-[(1R,2S)-2-(4-cyanophenyl)-2-hydroxy-1-methyl-ethyl]-5-(7H-pyrrolo[2,3-d]pyrimidin-4-yl)-5-azaspiro[2.5]octane-8-carboxamide] | 67.7 | 188 | 1840 | 266
18 | Cc1cc([C@@H](O)[C@H](C)NC(=O)[C@H]2CCN(c3ncnc4[nH]ccc34)CC23CC3)ncc1F [Example 133, (8S)-N-[(1S,2S)-2-(5-fluoro-4-methyl-2-pyridyl)-2-hydroxy-1-methyl-ethyl]-5-(7H-pyrrolo[2,3-d]pyrimidin-4-yl)-5-azaspiro[2.5]octane-8-carboxamide] | 27.3 | 37.5 | 375 | 148
19 | O=C(N[C@H](CO)c1ccccn1)[C@H]1CCN(c2ncnc3[nH]ccc23)CC12CC2 [Example 135, (8S)-N-[(1S)-2-hydroxy-1-(2-pyridyl)ethyl]-5-(7H-pyrrolo[2,3-d]pyrimidin-4-yl)-5-azaspiro[2.5]octane-8-carboxamide] | 33.2 | 83.8 | 466 | 148
20 | Cc1cc([C@H](O)[C@H](C)NC(=O)[C@H]2CCN(c3ncnc4[nH]ccc34)CC23CC3)ncc1F [Example 75, (8S)-N-[(1S,2R)-2-(5-fluoro-4-methyl-2-pyridyl)-2-hydroxy-1-methyl-ethyl]-5-(7H-pyrrolo[2,3-d]pyrimidin-4-yl)-5-azaspiro[2.5]octane-8-carboxamide] | 6.1 | 16.3 | 50.2 | 102
21 | C[C@H](NC(=O)[C@H]1CCN(c2ncnc3[nH]ccc23)CC12CC2)[C@H](O)c1ccc(F)cn1 [Example 107, (8S)-N-[(1S,2S)-2-(5-fluoro-2-pyridyl)-2-hydroxy-1-methyl-ethyl]-5-(7H-pyrrolo[2,3-d]pyrimidin-4-yl)-5-azaspiro[2.5]octane-8-carboxamide] | 10.3 | 14.5 | 125 | 57.7
